Assay results reported in patent US5096919A, “Pyrrolylphenyl-substituted hydroxamic acid derivatives” (Ciba-Geigy Corporation, priority 1989, dated 1992).

Experiments:
5-lipoxygenase [1] = assay: Ex vivo inhibition of A-23187-stimulated LTB4 formation in whole blood after oral administration; details: dose of about 1 mg/kg p.o. to the dog
Method: Furthermore, the inhibition of 5-lipoxygenase is determined after oral or i.v. administration to rats or dogs by measuring ex vivo in whole blood the decrease of A-23187-stimulated LTB4 formation as compared to non-treated control animals.
(§1) Illustrative of the invention, the compound of example 1, (E)-3-[4-(2,5-dimethyl-1H-pyrrol-1-yl)-phenyl]-N-hydroxy-N-methyl-2-propenamide, inhibits the formation of 5-HETE [(5S)-5-hydroxy-6,8,11,14-eicosa-tetraenoic acid] and leukotriene B4 (LTB4, 5,12-dihydroxy-6,8,10,14-eicosatetraenoic acid) in A-23187-stimulated guinea pig polymorphonuclear leukocytes, e.g. at an IC50 of about 0.7 micromolar (7×10^-7 M).

[2] = system: rat pleurisy model of inflammation; assay: Carrageenin-induced pleurisy model of inflammation; format: in vivo; details: 10 mg/kg p.o. at -1, 6, 24 and 45 hours relative to carrageenin injection, 48 hours after injection
5-lipoxygenase [3] = target: T1, 5-lipoxygenase (Cavia porcellus, UniProt A0A286X958); assay: Inhibition of 5-HETE and LTB4 synthesis in A-23187-stimulated guinea pig polymorphonuclear leukocytes; format: cell-based; details: also printed as 7×10^-7 M, read-out: IC50 for inhibition of the formation of 5-HETE and leukotriene B4 (LTB4)
T1 construct: in A-23187-stimulated guinea pig polymorphonuclear leukocytes; endogenous in cells; host or cells: guinea pig polymorphonuclear leukocytes
T1 sequence (A0A286X958 1-674): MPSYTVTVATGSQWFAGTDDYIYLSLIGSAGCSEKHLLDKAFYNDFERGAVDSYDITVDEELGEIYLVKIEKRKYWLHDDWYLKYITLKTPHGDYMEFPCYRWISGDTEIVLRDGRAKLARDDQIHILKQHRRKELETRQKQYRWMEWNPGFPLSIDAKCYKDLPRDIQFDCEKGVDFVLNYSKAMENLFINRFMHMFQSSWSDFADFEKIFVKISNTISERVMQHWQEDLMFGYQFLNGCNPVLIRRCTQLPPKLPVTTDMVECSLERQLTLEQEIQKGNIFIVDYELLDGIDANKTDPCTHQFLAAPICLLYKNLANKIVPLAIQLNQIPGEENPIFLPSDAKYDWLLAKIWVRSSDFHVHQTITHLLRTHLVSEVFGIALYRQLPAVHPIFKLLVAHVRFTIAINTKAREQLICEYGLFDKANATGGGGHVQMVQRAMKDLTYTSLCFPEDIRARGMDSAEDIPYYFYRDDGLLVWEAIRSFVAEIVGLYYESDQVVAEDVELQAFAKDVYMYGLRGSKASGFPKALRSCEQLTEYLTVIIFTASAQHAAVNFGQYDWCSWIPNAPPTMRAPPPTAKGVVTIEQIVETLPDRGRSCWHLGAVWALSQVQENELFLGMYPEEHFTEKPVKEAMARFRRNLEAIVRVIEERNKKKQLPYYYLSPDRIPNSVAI
Method: 5-Lipoxygenase inhibition is determined e.g. by measuring the percent inhibition of the synthesis of 5-HETE [(5S)-5-hydroxy-6,8,11,14-eicosa-tetraenoic acid] and leukotriene B4 (LTB4, 5,12-dihydroxy-6,8,10,14-eicosatetraenoic acid) in A-23187-stimulated guinea pig polymorphonuclear leukocytes, essentially according to radiometric thin-layer chromatographic assays described by Walker and Dawson (J. Pharm. Pharmacol. 31: 778, 1979) and Jakschik and Lee (Nature 287: 51, 1980) used to measure the formation of 5-HETE and LTB4 -like products from ^14 C-arachidonic acid. IC50 values are determined graphically as the concentration of test compound at which the synthesis of 5-HETE and LTB4 -like products is reduced to 50% of their respective control values.
as §1

## Cc1ccc(C)n1-c1ccc(/C=C/C(=O)N(C)O)cc1 [Example 1, (E)-3-[4-(2,5-dimethyl-1H-pyrrol-1-yl)-phenyl]-N-hydroxy-N-methyl-2-propenamide]
5-lipoxygenase [1]
  inhibition of LTB4 formation as determined ex vivo: 50%
[2]
  cell count of leukocytes: lowers the cell count of leukocytes
  inhibition of exudate volume: causes inhibition of exudate volume
5-lipoxygenase [3]
  IC50: ~0.7 µM
